Measured values reported in patent US20250230193A1, “CYCLIC COMPOUND HAVING SELECTIVE KRAS INHIBITORY EFFECT ON HRAS AND NRAS” (CHUGAI SEIYAKU KABUSHIKI KAISHA, priority 2022, published 2025).

What was measured:
[1] = system: human lung cancer strain NCI-H441; assay: cells; conditions: NCI-H441, 96 h, read-out: NCI-H441 IC50 (nM)
[2] = biological target: GDP-bound HRAS wild-type protein (Homo sapiens, UniProt P01112); assay: Binding to HRAS by surface plasmon resonance (SPR), Single Cycle Kinetics; conditions: SPR; KD ratio class
Chain of GDP-bound HRAS wild-type protein (P01112 whole entry): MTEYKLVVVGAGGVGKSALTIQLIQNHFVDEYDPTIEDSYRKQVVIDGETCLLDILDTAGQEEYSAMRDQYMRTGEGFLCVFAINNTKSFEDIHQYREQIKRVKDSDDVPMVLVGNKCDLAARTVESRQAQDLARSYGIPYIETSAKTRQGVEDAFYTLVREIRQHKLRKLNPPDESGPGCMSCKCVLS

[3] = biological target: GDP-bound NRAS wild-type protein (Homo sapiens, UniProt P01111); assay: Binding to NRAS by surface plasmon resonance (SPR), Single Cycle Kinetics; conditions: SPR; KD ratio class
Chain of GDP-bound NRAS wild-type protein (P01111 whole entry): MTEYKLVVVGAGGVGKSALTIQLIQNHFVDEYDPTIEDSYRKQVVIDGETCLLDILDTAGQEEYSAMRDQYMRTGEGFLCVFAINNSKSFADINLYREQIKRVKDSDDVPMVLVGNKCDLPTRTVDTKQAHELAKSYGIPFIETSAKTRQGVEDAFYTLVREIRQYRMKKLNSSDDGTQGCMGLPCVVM

| IC50 [1] [nM] | SMILES | HRAS/KRAS (ratio of KD value for GDP-bound HRAS wild-type protein to KD value for KRAS) [2] | NRAS/KRAS (ratio of KD value for GDP-bound NRAS wild-type protein to KD value for KRAS) [3] |
| --- | --- | --- | --- |
| 38.8 | CCO[C@@H]1C[C@H]2C(=O)NC3(CCC3)C(=O)N(C)[C@@H](C(CC)CC)C(=O)N(C)[C@H](C(=O)N(C)C)CC(=O)N(C)[C@@H](CC3CC3)C(=O)N[C@@H]([C@@H](C)CC)C(=O)N(C)CC(=O)N(C)[C@H]3C/C=C\CCN(C3=O)[C@@H](CC3CCCCC3)C(=O)N(C)CC(=O)N[C@@H](CCc3cc(F)c(C(F)(F)F)c(F)c3)C(=O)N2C1 [PP1428] | A (a compound having 10 or more and less than 20 is denoted as A) | AA (a compound having 20 or more is denoted as AA) |
| 3.6 | CCO[C@@H]1C[C@H]2C(=O)NC3(CCC3)C(=O)N(C)[C@@H](C3CCCC3)C(=O)N(C)[C@H](C(=O)N3CCOCC3)CC(=O)N(C)[C@@H](CC)C(=O)N[C@@H]([C@@H](C)CC)C(=O)N(C)CC(=O)N(C)[C@H]3C[C@@H](C)[C@@H](C)CN(C3=O)[C@@H](Cc3ccc(C(F)(F)F)cc3)C(=O)N(C)CC(=O)N[C@@H](CCc3cc(F)c(C(F)(F)F)c(F)c3)C(=O)N2C1 [PP1354] | B (a compound having 3 or more and less than 10 is denoted as B) | A (a compound having 10 or more and less than 20 is denoted as A) |
| 2.8 | CCCOC[C@H]1C(=O)N[C@@H]([C@@H](C)CC)C(=O)N(C)CC(=O)N(C)[C@H]2C/C=C\CCN(C2=O)[C@@H](Cc2ccc(C(F)(F)F)cc2)C(=O)N(C)CC(=O)N[C@@H](CCc2cc(F)c(C(F)(F)F)c(F)c2)C(=O)N2C[C@H](OCC)C[C@H]2C(=O)NC2(CCC2)C(=O)N(C)[C@@H](C2CCCC2)C(=O)N(C)[C@H](C(=O)N(C)CC)CC(=O)N1C [PP1569] | B (a compound having 3 or more and less than 10 is denoted as B) | A (a compound having 10 or more and less than 20 is denoted as A) |
| 40.4 | CCO[C@@H]1C[C@H]2C(=O)NC3(CCC3)C(=O)N(C)[C@@H](C3CCCC3)C(=O)N(C)[C@H](C(=O)N3CCCC3)CC(=O)N(C)[C@@H](CC3CCCCC3)C(=O)N[C@@H]([C@@H](C)CC)C(=O)N(C)CC(=O)N(C)[C@H]3C/C=C\CCN(C3=O)[C@@H](Cc3ccc(C(F)(F)F)cc3)C(=O)N(C)CC(=O)N[C@@H](CCc3cc(F)c(C(F)(F)F)c(F)c3)C(=O)N2C1 [PP1419] | A (a compound having 10 or more and less than 20 is denoted as A) | AA (a compound having 20 or more is denoted as AA) |
| 54.3 | CCO[C@@H]1C[C@H]2C(=O)NC3(CCC3)C(=O)N(C)[C@@H](C3CCCC3)C(=O)N(C)[C@H](C(=O)N(C)C)CC(=O)N(C)[C@@H](CC(C)C)C(=O)N[C@@H]([C@@H](C)CC)C(=O)N(C)CC(=O)N(C)[C@H]3C/C=C\CCN(C3=O)[C@@H](Cc3ccc(C(F)(F)F)cc3)C(=O)N(C)CC(=O)N[C@@H](CCc3ccc4sccc4c3)C(=O)N2C1 [PP1257] | A (a compound having 10 or more and less than 20 is denoted as A) | A (a compound having 10 or more and less than 20 is denoted as A) |
| 55.4 | CCO[C@@H]1C[C@H]2C(=O)NC3(CCC3)C(=O)N(C)[C@@H](C3CCCC3)C(=O)N(C)[C@H](C(=O)N(C)C)CC(=O)N(C)[C@@H](CC)C(=O)N[C@@H]([C@@H](C)CC)C(=O)N(C)CC(=O)N(C)[C@H]3C/C=C\CCN(C3=O)[C@@H](Cc3ccc(C(F)(F)F)cc3)C(=O)N(C)CC(=O)N[C@@H](CCc3ccc(Cl)c(Cl)c3)C(=O)N2C1 [PP1249] | A (a compound having 10 or more and less than 20 is denoted as A) | A (a compound having 10 or more and less than 20 is denoted as A) |
| 79.8 | CCO[C@@H]1C[C@H]2C(=O)NC3(CCCCC3)C(=O)N(C)[C@@H](C3CCCC3)C(=O)N(C)[C@H](C(=O)N(C)C)CC(=O)N(C)[C@@H](CC)C(=O)N[C@@H]([C@@H](C)CC)C(=O)N(C)CC(=O)N(C)[C@H]3C/C=C\CCN(C3=O)[C@@H](Cc3ccc(C(F)(F)F)cc3)C(=O)N(C)CC(=O)N[C@@H](CCc3cc(F)c(C(F)(F)F)c(F)c3)C(=O)N2C1 [PP1277] | A (a compound having 10 or more and less than 20 is denoted as A) | A (a compound having 10 or more and less than 20 is denoted as A) |
| 56.7 | CCO[C@@H]1C[C@H]2C(=O)NC3(CCC3)C(=O)N(C)[C@@H](C3CCCC3)C(=O)N(C)[C@H](C(=O)N(C)C)CC(=O)N(C)[C@@H](CC)C(=O)N[C@@H]([C@@H](C)CC)C(=O)N(C)CC(=O)N(C)[C@H]3C/C=C\CCN(C3=O)[C@@H](Cc3ccc(C(F)(F)F)cc3)C(=O)N(C)CC(=O)N[C@@H](CCc3cc(F)c(Cl)c(F)c3)C(=O)N2C1 [PP1262] | B (a compound having 3 or more and less than 10 is denoted as B) | A (a compound having 10 or more and less than 20 is denoted as A) |
| 22.2 | CCO[C@@H]1C[C@H]2C(=O)NC3(CCC3)C(=O)N(C)[C@@H](C(CC)CC)C(=O)N(C)[C@H](C(=O)N(C)C)CC(=O)N(C)[C@@H](CC3CCCC3)C(=O)N[C@@H]([C@@H](C)CC)C(=O)N(C)CC(=O)N(C)[C@H]3C/C=C\CCN(C3=O)[C@@H](Cc3ccc(C(F)(F)F)cc3)C(=O)N(C)CC(=O)N[C@@H](CCc3ccc(Cl)c(Cl)c3)C(=O)N2C1 [PP1220] | A (a compound having 10 or more and less than 20 is denoted as A) | AA (a compound having 20 or more is denoted as AA) |
| 122 | CCC[C@H]1C(=O)N[C@@H]([C@@H](C)CC)C(=O)N(C)CC(=O)N(C)[C@H]2C/C=C\CCN(C2=O)[C@@H](Cc2ccc(C(F)(F)F)cc2)C(=O)N(C)CC(=O)N[C@@H](CCc2ccc3sccc3c2)C(=O)N2C[C@H](OCC)C[C@H]2C(=O)NC2(CCC2)C(=O)N(C)[C@@H](C(CC)CC)C(=O)N(C)[C@H](C(=O)N(C)C)CC(=O)N1C [PP1224] | A (a compound having 10 or more and less than 20 is denoted as A) | A (a compound having 10 or more and less than 20 is denoted as A) |
| 6.7 | CCCOC[C@H]1C(=O)N[C@@H]([C@@H](C)CC)C(=O)N(C)CC(=O)N(C)[C@H]2C/C=C\CCN(C2=O)[C@@H](Cc2ccc(C)cc2)C(=O)N(C)CC(=O)N[C@@H](CCc2cc(F)c(C(F)(F)F)c(F)c2)C(=O)N2C[C@H](OCC)C[C@H]2C(=O)NC2(CC(C)(C)C2)C(=O)N(C)[C@@H](C2CCCC2)C(=O)N(C)[C@H](C(=O)N(C)CC)CC(=O)N1C [PP1577] | B (a compound having 3 or more and less than 10 is denoted as B) | B (a compound having 3 or more and less than 10 is denoted as B) |
| 466 | CC[C@H](C)[C@@H]1NC(=O)[C@H](CC2CC2)N(C)C(=O)C[C@@H](C)N(C)C(=O)[C@H](C2CCCC2)N(C)C(=O)C2(CCC2)NC(=O)[C@H](CC(F)F)N(C)C(=O)[C@H](CCc2cc(F)c(C(F)(F)F)c(F)c2)NC(=O)CN(C)C(=O)[C@H](Cc2ccc(C(F)(F)F)cc2)N2CC/C=C\C[C@@H](C2=O)N(C)C(=O)CN(C)C1=O [PP1405] | A (a compound having 10 or more and less than 20 is denoted as A) | A (a compound having 10 or more and less than 20 is denoted as A) |
| 51 | CCO[C@@H]1C[C@H]2C(=O)NC3(CCC3)C(=O)N(C)[C@@H](C3CCCC3)C(=O)N(C)[C@H](C)CC(=O)N(C)[C@@H](CC3CC3)C(=O)N[C@@H]([C@@H](C)CC)C(=O)N(C)CC(=O)N(C)[C@H]3C/C=C\CCN(C3=O)[C@@H](Cc3ccc(C)cc3)C(=O)N(C)CC(=O)N[C@@H](CCc3cc(F)c(C(F)(F)F)c(F)c3)C(=O)N2C1 [PP1410] | B (a compound having 3 or more and less than 10 is denoted as B) | B (a compound having 3 or more and less than 10 is denoted as B) |
| 51.2 | CCCCCC[C@H]1C(=O)N[C@@H]([C@@H](C)CC)C(=O)N(C)CC(=O)N(C)[C@H]2C/C=C\CCN(C2=O)[C@@H](Cc2ccc(C(F)(F)F)cc2)C(=O)N(C)CC(=O)N[C@@H](CCc2ccc(Cl)c(Cl)c2)C(=O)N2C[C@H](OCC)C[C@H]2C(=O)NC2(CCC2)C(=O)N(C)[C@@H](C2CCCC2)C(=O)N(C)[C@H](C(=O)N(C)C)CC(=O)N1C [PP1252] | A (a compound having 10 or more and less than 20 is denoted as A) | AA (a compound having 20 or more is denoted as AA) |
| 40.4 | CCO[C@@H]1C[C@H]2C(=O)NC3(CCC3)C(=O)N(C)[C@@H](C(CC)CC)C(=O)N(C)[C@H](C(=O)N(C)C)CC(=O)N(C)[C@@H](COC)C(=O)N[C@@H]([C@@H](C)CC)C(=O)N(C)CC(=O)N(C)[C@H]3C/C=C\CCN(C3=O)[C@@H](Cc3ccc(C(F)(F)F)cc3)C(=O)N(C)CC(=O)N[C@@H](CCc3ccc(C(F)(F)F)c(OC)c3)C(=O)N2C1 [PP1213] | A (a compound having 10 or more and less than 20 is denoted as A) | AA (a compound having 20 or more is denoted as AA) |
